In general, IC50 refers to the point on the concentration scale where inhibition reaches its midpoint. A lower IC50 goes with higher potency.

This note sets out measurements from patent publication EP1149072B1, “SULFONAMIDE HYDROXAMATES” (F. HOFFMANN-LA ROCHE AG, priority 1998, dated 2000).

Type in all cases: biochemical
Experiment [1] concerns the target T1, Procollagen C-Proteinase (PCP) (Homo sapiens, UniProt P13497).
T1 construct: made in house; enzyme purified from culture fluid
T1 sequence (P13497 121-730 isoform P13497-2 limits assumed): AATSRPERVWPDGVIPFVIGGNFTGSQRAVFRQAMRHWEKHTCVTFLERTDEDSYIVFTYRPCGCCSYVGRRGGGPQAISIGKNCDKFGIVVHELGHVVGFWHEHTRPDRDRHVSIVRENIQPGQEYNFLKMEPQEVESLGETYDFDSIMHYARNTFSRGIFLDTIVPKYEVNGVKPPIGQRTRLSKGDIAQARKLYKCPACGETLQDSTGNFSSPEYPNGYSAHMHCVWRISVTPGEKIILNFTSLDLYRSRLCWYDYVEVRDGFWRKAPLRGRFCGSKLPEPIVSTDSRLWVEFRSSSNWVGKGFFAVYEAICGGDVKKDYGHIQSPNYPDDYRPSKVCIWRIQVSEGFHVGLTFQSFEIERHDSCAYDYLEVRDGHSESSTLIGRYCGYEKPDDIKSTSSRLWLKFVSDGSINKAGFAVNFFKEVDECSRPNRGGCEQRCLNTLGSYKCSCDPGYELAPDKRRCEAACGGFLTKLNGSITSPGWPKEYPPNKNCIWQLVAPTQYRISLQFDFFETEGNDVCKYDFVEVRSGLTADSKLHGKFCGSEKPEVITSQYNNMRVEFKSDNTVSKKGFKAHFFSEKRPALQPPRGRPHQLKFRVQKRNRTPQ
The experiment in a line: Inhibition of Procollagen C-Proteinase activity, Assay A (continuous fluorescence assay, synthetic peptide substrate). The following applies: Assay A from Ex. 21; 20 µM substrate, pH 7.5, 30°C. The protocol: Human Procollagen C-Proteinase (PCP, also known as Bone Morphogenetic Protein-1 or BMP-1) was cloned from a human fibroblast cDNA library (Stratagene, San Diego, CA). Cloning was performed by PCR based on the reported nucleotide sequence (Wozney, J.M., Rosen,V., Celeste, A.J., Mitsock, L.M., Whitters, M.J., Kriz, R.W., Hewick, R.M., and Wang, E.A. (1989) direct GenBank submission accession M22488, locus HUMBMP1) using Taq polymerase, the 5' primer […] […] […] (SEQ ID NO:1) (Oligo Therapeutics, Inc., Wilsonville, OR), and the 3' reverse strand primer […] TTGAGCTGGTG (SEQ ID NO:2) (Gibco) to yield the entire full-length nucleotide encoding the signal sequence, propeptide, catalytic domain, and all C-terminal domains to the natural translation termination site. The PCR product was purified by gel electrophoresis using the Wizard DNA Purification Kit (Promega, Madison, WI) and ligated directly into the mammalian expression vector pCR3.1 (Invitrogen, Carlsbad, CA) by the TA cloning method. Ligated product was used to transform E coli strain TOP10F' (Invitrogen, Carlsbad, CA) by a standard heat-shock method, and transformants were selected by restriction analysis of purified plasmid using the enzymes HindIII and BamHI. Transformants testing positive for the PCP insert were submitted for sequencing using the Perkin-Elmer / ABI system. Two clones were selected that, when combined, encoded the entire amino acid sequence identical to the one predicted by Wozney et al. The two clones were recombined by restriction using the enzymes BbrI, which cleaved at a naturally occurring internal site, and EcoRV, which cleaved at the junction of the insert and vector. The excised fragments were religated into EcoRV-treated pCR3.1. The resulting construct contained the entire coding sequence identical to that reported by Wozney et al. with the exception of two silent mutations in the signal sequence, G->A at both positions 39 and 45 counting from the translation initiation site (ATG). The completed plasmid construct was amplified in E. coli DH5a and purified using anion exchange chromatography (MaxiPrep columns from Qiagen (Valencia, CA) catalog #12162).
A column packed with Dyematrex Gel Green A (Millipore, Bedford, MA) was equilibrated against 50 mM HEPES, pH7.2, containing 6mM CaCl2 and 0.3M NaCl. After the HT1080 cell culture fluid was loaded, the column was washed with 10 column volumes of the equilibration buffer containing 1.0 M NaCl. PCP was eluted with 50 mM HEPES pH 7.2 containing 3 M NaCl, 2 M urea and 6 mM CaCl2. Eluate fractions were pooled and concentrated to 150-200 ml and dialyzed against 4.0 liters of 50 mM HEPES, 6 mM CaCl2, pH 7.2 overnight. The material was then centrifuged at 5,000 g for 15 minutes to remove precipitates. The PCP containing sample were stored at -20 °C until ready for further processing. The PCP containing sample was thawed and diluted with 50 mM HEPES pH 7.2 containing 6 mM CaCl2, if necessary to bring the NaCl concentration to 0.1-0.15 M. The pH was adjusted to 6.7 with 2 N HCl. The protein solution was filtered through a 0.45 µm filter to remove any precipitate. This preparation was then loaded onto a column packed with Q-Sepharose High Performance (Pharmacia, Piscataway, NJ) which had been equilibrated with 50mM HEPES pH 6.7 containing 6 mM CaCl2 and 0.15 M NaCl. The PCP was not retained in the column and was therefore in the flow through fractions. The PCP was concentrated to 1 mg/ml and used for screening.
Culture fluid from the drosophila cells was concentrated 8 fold and the pH adjusted to 7.1-7.2 if necessary. The culture fluid was centrifuged at 3000 g for 10 minutes and filtered through 0.45 µm filters. The culture fluid was then loaded onto columns packed with carboxy-sulfone packing material (J.T. Baker/Mallinckrodt, Phillipsburg, NJ) which had been equilibrated with 0.1 M NaCl, 50 mM HEPES, 6 mM CaCl2, pH 7.2. […]

The target in experiment [2] is T2, collagenase-1 (Homo sapiens, UniProt P03956).
T2 construct: the collagenase-1 catalytic domain was released by treatment with 1mM of aminophenylmercuric acetate (APMA); ubiquitin (cleaved yes); made in house; host or cells: E. coli
T2 sequence (P03956 100-269 limits assumed): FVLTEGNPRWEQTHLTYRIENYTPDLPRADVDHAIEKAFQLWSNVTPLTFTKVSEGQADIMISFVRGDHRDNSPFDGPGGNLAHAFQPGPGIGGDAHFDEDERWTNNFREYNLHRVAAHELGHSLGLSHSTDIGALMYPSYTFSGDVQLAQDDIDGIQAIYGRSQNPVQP
In words: Measurement of collagenase activity (hydrolysis of fluorogenic peptide MCA-Pro-Leu-Gly-Leu-DPA-Ala-Arg-NH2). The following applies: based on inhibitory data from Assay A of Ex. 21 and the Assay of Ex. 22. The method, then:
(§1) The catalytic domain of human collagenase-1 was expressed as a fusion protein with ubiquitin in E. Coli as described in Gehring, E.R. et al., J. Biol. Chem., 270, 22507, (1995). After purification of the fusion protein, the collagenase-1 catalytic domain was released by treatment with 1mM of aminophenylmercuric acetate (APMA) for 1 hour at 37 °C and then purified by zinc chelate chromatography. Human collagenase-2 and gelatinase B were isolated in active form from buffy coats as described in Mookhtiar, K.A. et al., Biochemistry, 29, 10620, (1990). The propeptide and catalytic domain portion of human collagenase-3 was expressed in E. Coli as an N-terminal fusion protein with ubiquitin. After purification, the catalytic domain was released by treatment with 1 mM APMA for 1 hour at 37 ° C, and then purified by zinc chelate chromatography. Rat collagenase-3 was purified in active form from the culture media of uterine smooth muscle cells as described in Roswit, W.T. et al., Arch. Biochem. Biophys., 225, 285-295 (1983).
(§2) The collagenase-1, collagenase-2 and collagenase-3 inhibitory activity of compounds of this invention in vitro was determined based on the hydrolysis of MCA-Pro-Leu-Gly-Leu-DPA-Ala-Arg-NH2 (SEQ ID NO:8) (Bachem, Inc.) at 37°C as described in Knight, C.G., et al., FEBS Lett., 296(3): 263-266 (1992). The collagenase enzyme was diluted with assay buffer (50 mM Tricine pH 7.5, 200 mM NaCl, 10 mM CaCl2, and 0.005% Brij-35) containing […] of above substrate dissolved in DMSO. Compounds of the invention dissolved in DMSO or only DMSO (control samples) were added such that the final DMSO concentration in all assays was 2.5%. The fluorescence changes were monitored with a Perkin-Elmer LS-50B flourimeter using an excitation wavelength of 328 nm and an emission wavelength of 393 nm.

Experiment [3] concerns the target T3, collagenase-2 (Homo sapiens, UniProt P22894).
T3 construct: Human collagenase-2 and gelatinase B were isolated in active form from buffy coats; from tissue; host or cells: human buffy coats (blood leukocytes)
The description is as above. The following applies: based on inhibitory data from Assay A of Ex. 21 and the Assay of Ex. 22. The method, then:
as §1, §2

Experiment [4] concerns the target T4, collagenase-3 (Homo sapiens, UniProt P45452).
T4 construct: After purification, the catalytic domain was released by treatment with 1 mM APMA for 1 hour; ubiquitin (N, cleaved yes); made in house; host or cells: E. coli
The description is as above. The following applies: based on inhibitory data from Assay A of Ex. 21 and the Assay of Ex. 22. The protocol:
as §1, §2

T3 sequence (P22894 101-467): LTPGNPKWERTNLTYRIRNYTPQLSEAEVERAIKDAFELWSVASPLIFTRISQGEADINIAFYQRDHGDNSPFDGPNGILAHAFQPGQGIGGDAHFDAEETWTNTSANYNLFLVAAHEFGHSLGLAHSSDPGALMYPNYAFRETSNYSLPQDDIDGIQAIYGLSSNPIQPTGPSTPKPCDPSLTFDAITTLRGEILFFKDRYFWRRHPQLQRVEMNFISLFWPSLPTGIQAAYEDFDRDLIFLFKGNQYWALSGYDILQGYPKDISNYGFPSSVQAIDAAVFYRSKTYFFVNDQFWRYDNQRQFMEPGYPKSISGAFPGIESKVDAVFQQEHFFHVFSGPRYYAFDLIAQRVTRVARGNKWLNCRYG

In turn, `COc1cc(C)c(S(=O)(=O)N(Cc2ccc3c(c2)OCO3)[C@H](CO)C(=O)NO)c(C)c1C` [Cmpd 5, N-hydroxy-2(R)-[(3,4-methylenedioxybenzyl)-(4-methoxy-2,3,6-trimethylbenzenesulfonyl)amino)-3-hydroxypropionamide] returned an IC50 in experiment [1] of 73 nM. Also, the “Selectivity for PCP/Col-1” value in experiment [2] amounted to 520.5. The “Selectivity for PCP/Col-2” value in experiment [3] worked out at 123.3.

Turning to `COc1cc(C)c(S(=O)(=O)N(Cc2ccc3c(c2)OCO3)[C@@H](C(=O)NO)C(C)C)c(C)c1C` [Cmpd 12, N-hydroxy-2(R)-[(3,4-methylenedioxybenzyl)-(4-methoxy-2,3,6-trimethylbenzenesulfonyl)amino]-3-methylbutyramide], in experiment [1], the IC50 came out at 69 nM. Moreover, the “Selectivity for PCP/Col-1” value in experiment [2] was 89.9. In addition, the “Selectivity for PCP/Col-2” value in experiment [3] worked out at 23.2. Moreover, the “Selectivity for PCP/Col-3” value in experiment [4] is listed as 14.5.

In experiment [1], `COc1cc(C)c(S(=O)(=O)N(Cc2ccc3[nH]ccc3c2)[C@H](COC(C)(C)C)C(=O)NO)c(C)c1C` [Cmpd 15, N-Hydroxy-2(R)-[(4-methoxy-2,5,6-trimethylbenzenesulfonyl)-(1H-indol-5-ylmethyl)amino]-3-tert-butoxypropionamide] yielded an IC50 of 66 nM. Besides, the “Selectivity for PCP/Col-1” value in experiment [2] is recorded as 515.1. Besides, the “Selectivity for PCP/Col-2” value in experiment [3] is 454.5.

In experiment [1], `COc1cc(C)c(S(=O)(=O)N(Cc2ccc3c(c2)OCO3)[C@@H](C(=O)NO)C(C)C)c(C)c1` [Cmpd 40, N-hydroxy-2(R)-2-[(3,4-methylenedioxybenzyl)-(4-methoxy-2,6-dimethylbenzene-sulfanyl)amino]-3-methylbutyramide] registered an IC50 of 68 nM. Also, in experiment [2], the “Selectivity for PCP/Col-1” value came out at 367.6. Besides, the “Selectivity for PCP/Col-2” value in experiment [3] came to 55.9.

Take `COc1cc(C)c(S(=O)(=O)N(Cc2ccc3[nH]cnc3c2)[C@@H](C(=O)NO)C(C)C)c(C)c1C` [Cmpd 82]: the IC50 in experiment [1] amounted to 40 nM. The “Selectivity for PCP/Col-1” value in experiment [2] is given as 1775.0. Besides, the “Selectivity for PCP/Col-2” value in experiment [3] is listed as 250.0. The “Selectivity for PCP/Col-3” value in experiment [4] was found to be 1950.0.

As to `COc1cc(C)c(S(=O)(=O)N(Cc2ccc3[nH]cc(C(C)=O)c3c2)[C@@H](C(=O)NO)C(C)C)c(C)c1C` [Cmpd 126, N-hydroxy-2(R)-[(1H-3-acetyl-indol-5-ylmethyl)-(4-methoxy-2,3,6-trimethylbenzenesulfonyl)amino]-3-methylbutyramide], inhibition in experiment [1] was half-maximal at 26 nM (IC50).

`COc1cc(C)c(S(=O)(=O)N(Cc2ccc3c(c2)OCO3)[C@H](CNS(C)(=O)=O)C(=O)NO)c(C)c1` [Cmpd 128, N-hydroxy-2(R)-[(3,4-methylendioxybenzyl)-(2,6-dimethyl-4-methoxybenzenesulfonyl)amino]-3-(methanesulfonyl)amino-propionamide] yielded an IC50 in experiment [1] of 30 nM.

Turning to `COc1cc(C)c(S(=O)(=O)N(Cc2ccc3[nH]ccc3c2)[C@@H](C(=O)NO)C(C)C)cc1C` [Cmpd 145, N-hydroxy-2(R)-2-[(1H-indol-5-ylmethyl)-(4-methoxy-2,5-dimethylbenzenesulfonyl)-amino]-3-methylbutyramide], the IC50 in experiment [1] was found to be 110 nM. In addition, in experiment [2], the “Selectivity for PCP/Col-1” value came to 400.0. Besides, in experiment [3], the “Selectivity for PCP/Col-2” value is listed as 136.4.
